The assay deals with tracheal specimens excised from guinea pigs. In words: Inhibitory effect on KCl-induced contraction of tracheal specimens excised from guinea pigs (Magnus tube). As to conditions: dose required for relaxing KCl-induced contraction to 50 %, final KCl concentration: 20 mM, 37 °C, compounds other than acid addition salts used as hydrochloride, 3 specimens per group, read-out: ED₅₀ Effect on KCl-induced contraction. The format is cell-based. The procedure:
The bronchial smooth muscle-relaxing action of the sulfonamide derivative of the present invention was evaluated by the effect on suppression of KCl-induced contraction and PGF2α-induced contraction of bronchial specimens excised from guinea pigs.
According to a method in which tracheal specimens excised from guinea pigs were used (Takagi and Ozawa, "Yakubutsugaku Jikken (Experiments in Pharmacology)", pp.100-102, 1960, published by Nanzando Japan; and Fujiwara and Shibata, "Yakurigaku Kiso Jikenho (Methods of Fundamental Experiments in Pharmacology)" pp.131-134, 1982, published by Kyourin, Japan), relaxing effect of sulfonamide derivatives of the present invention on bronchial smooth muscle was examined. Of compounds (1) to (69) shown herein, compounds other than acid addition salts were individually used in the form of a hydrochloride which was obtained by the same method as described in Example 61.
From male guinea pigs weighing 350 to 500 g (Hartley strain, Kuroda Junkei Dobutsu), tracheas were excised and each of the excised tracheal specimens was hung in 20 ml of a Magnus tube filled with Krebs-Henseleit solution under isotonic conditions and the solution temperature was kept at 37 °C. An aqueous KCl solution was dropwise added into the Magnus tube (final KCl concentration: 20 mM) to contract the tracheal specimen. After the KCl-induced contraction became stable, each of the compounds of the present invention was dissolved in distilled water or physiological saline, and the compound solution was cumulatively added into the Magnus tube. The relaxing effect of each of the compounds of the present invention on contracted tracheal specimens was evaluated and a dose-response curve was obtained.
A dose required for relaxing KCl-induced contraction to 50 %, i.e., ED₅₀ was calculated from the dose-response curve. For comparison, the same method as described above was repeated except that aminophylline was used, to thereby determine an ED₅₀. The number of tracheal specimens in each group was 3.

Like-named read-outs stand apart in the source and are kept apart here.

Take “1-(1-hydroxy-5-isoquinolinesulfonylaminoethyl) piperazine hydrochloride [(32)]”: the EC50 stood at 27 µM.
In the case of `CCOc1ccc(S(=O)(=O)NCCNCc2ccccc2)c2cccnc12` [(25), N-(2-benzylaminoethyl)-8-ethoxy-5-quinolinesulfonamide], under “Cavia porcellus”, the EC50 was found to be 105 µM.
For `COc1ccc(CCNCCNS(=O)(=O)c2ccc(Cl)c3ncccc23)cc1OC` [(8), N-[2-(3,4-dimethoxyphenethylamino)ethyl]-8-chloro-5-quinolinesulfonamide], the EC50 (Cavia porcellus) worked out at 120 µM.
Consider “1-(1-hydroxy-5-isoquinolinesulfonylaminoethyl)-3-(3,4-methylenedioxybenzyl)homopiperazine hydrochloride [(35)]”, for which the EC50 is 18 µM.
As for `O=S(=O)(NCCNCc1ccc2c(c1)OCO2)c1cccc2ncccc12` [Compound (27), N-[2-(3,4-methylenedioxybenzylamino)ethyl]-5-quinolinesulfonamide], the EC50 (Cavia porcellus) amounted to 86 µM.
For the compound `O=S(=O)(NCCN1CCN(Cc2ccc3c(c2)OCO3)CC1)c1ccc(Cl)c2ncccc12` [(39), 1-(8-chloro-5-quinolinesulfonylaminoethyl)-4-(3,4-methylenedioxybenzyl)piperazine], the EC50 (Cavia porcellus) was found to be 31 µM.
Take `O=S(=O)(NCCNCc1ccc2c(c1)OCO2)c1ccc(Cl)c2ncccc12` [(13), N-[2-(3,4-methylenedioxybenzylamino)ethyl]-8-chloro-5-quinolinesulfonamide]: the EC50 (Cavia porcellus) is 28 µM.
Same read-out and setting: the same measure for `O=S(=O)(NCCN1CCCN(Cc2ccc(Cl)cc2)CC1)c1ccc(Cl)c2ncccc12` [(40), 1-(8-chloro-5-quinolinesulfonylaminoethyl)-4-(4-chlorobenzyl)homopiperazine]: 68 µM; for `CCOc1ccc(S(=O)(=O)NCCNCc2ccc3c(c2)OCO3)c2cccnc12` [(24), N-[2-(3,4-methylenedioxybenzylamino)ethyl]-8-ethoxy-5-quinolinesulfonamide]: 31 µM.
With “1-(1-hydroxy-5-isoquinolinesulfonylaminoethyl) homopiperazine hydrochloride [(33)]”, the EC50 came to 24 µM.
Regarding `CCOc1ccc(S(=O)(=O)NCCNCc2cccc(Cl)c2)c2cccnc12` [(21), N-[2-(3-chlorobenzylamino)ethyl]-8-ethoxy-5-quinolinesulfonamide], the EC50 (Cavia porcellus) turned out to be 128 µM.
In the case of `O=S(=O)(NCCN1CCNCC1)c1ccc(Cl)c2ncccc12` [(37), 1-(8-chloro-5-quinolinesulfonylaminoethyl) piperazine], where the note is “Cavia porcellus”, the EC50 came out at 48 µM.
Take `CCOc1ccc(S(=O)(=O)NCCN2CCNCC2)c2cccnc12` [(47), 1-(8-ethoxy-5-quinolinesulfonylaminoethyl) piperazine]: the EC50 (Cavia porcellus) came out at 60 µM.
For `CCOc1ccc(S(=O)(=O)NCCNCCc2ccc(OC)cc2)c2cccnc12` [(16), N-[2-(4-methoxyphenethylamino)ethyl]-8-ethoxy-5-quinolinesulfonamide], the EC50 (Cavia porcellus) is 35 µM.
For the compound `CCOc1ccc(S(=O)(=O)NCCNCCc2ccc(OC)c(OC)c2)c2cccnc12` [(19), N-[2-(3,4-dimethoxyphenethylamino)ethyl]-8-ethoxy-5-quinolinesulfonamide], the EC50 (Cavia porcellus) is 125 µM.
`COc1ccc(CCN2CCN(CCNS(=O)(=O)c3ccc(Cl)c4ncccc34)CC2)cc1OC` [(43), 1-(8-chloro-5-quinolinesulfonylaminoethyl)-4-(3,4-dimethoxyphenethyl)piperazine]: the EC50 (Cavia porcellus) is 106 µM.
In the case of `COc1ccc(CNCCNS(=O)(=O)c2ccc(Cl)c3ncccc23)cc1` [(11), N-[2-(4-methoxybenzylamino)ethyl]-8-chloro-5-quinolinesulfonamide], the EC50 (Cavia porcellus) was 125 µM.
Same read-out and setting: the same measure for `CCOc1ccc(S(=O)(=O)N2CCNCC2)c2cccnc12` [(57), 1-(8-ethoxy-5-quinolinesulfonyl)piperazine]: 57 µM; for `O=S(=O)(NCCN1CCCN(Cc2ccc3c(c2)OCO3)CC1)c1cccc2ncccc12` [(45), 1-(5-quinolinesulfonylaminoethyl)-4-(3,4-methylenedioxybenzyl)homopiperazine]: 84 µM.
In the case of `CCOc1ccc(S(=O)(=O)NCCNCCc2ccc3c(c2)OCO3)c2cccnc12` [(20), N-[2-(3,4-methylenedioxyphenethylamino)ethyl]-8-ethoxy-5-quinolinesulfonamide], the EC50 (Cavia porcellus) worked out at 38 µM.
Take `O=S(=O)(c1cccc2ncccc12)N1CCCNCC1` [(58), 1-(5-quinolinesulfonyl)homopiperazine]: the EC50 (Cavia porcellus) was 79 µM.
Consider `COc1ccc(CCNCCNS(=O)(=O)c2ccc(Cl)c3ncccc23)cc1` [(5), N-[2-(4-methoxyphenethylamino)ethyl]-8-chloro-5-quinolinesulfonamide], for which the EC50 (Cavia porcellus) stood at 28 µM.
As for `O=S(=O)(NCCNCCc1ccc(C(F)(F)F)cc1)c1ccc(Cl)c2ncccc12` [(7), N-[2-(4-trifluoromethylphenethylamino)ethyl]-8-chloro-5-quinolinesulfonamide], the EC50 (Cavia porcellus) turned out to be 70 µM.
As for `O=S(=O)(NCCN1CCN(Cc2ccc(Cl)cc2)CC1)c1ccc(Cl)c2ncccc12` [(41), 1-(8-chloro-5-quinolinesulfonylaminoethyl)-4-(4-chlorobenzyl)piperazine], the EC50 (Cavia porcellus) was 78 µM.
Turning to `O=S(=O)(NCCNCCc1ccc2c(c1)OCO2)c1ccc(Cl)c2ncccc12` [(9), N-[2-(3,4-methylenedioxyphenethylamino)ethyl]-8-chloro-5-quinolinesulfonamide], the EC50 (Cavia porcellus) worked out at 30 µM.
The same measure, in the same setting: the same measure for `O=S(=O)(NCCN1CCNCC1)c1cccc2cnccc12` [(28), 1-(5-isoquinolinesulfonylaminoethyl)piperazine]: 24 µM; for `O=S(=O)(c1cccc2ncccc12)N1CCNCC1` [(59), 1-(5-quinolinesulfonyl)piperazine]: 90 µM.
As to `CCOc1ccc(S(=O)(=O)NCCN2CCCNCC2)c2cccnc12` [Compound (46), 1-(8-ethoxy-5-quinolinesulfonylaminoethyl) homopiperazine], the EC50 (Cavia porcellus) turned out to be 51 µM.
For `COc1ccc(CCNC(C)CNS(=O)(=O)c2ccc(Cl)c3ncccc23)cc1OC` (stereo not shown) [(60), N-[2-(3,4-dimethoxyphenethylamino)-2-methylethyl]-8-chloro-5-quinolinesulfonamide], the EC50 (Cavia porcellus) amounted to 110 µM.
Consider `O=S(=O)(NCCN1CCCNCC1)c1cccc2ncccc12` [(44), 1-(5-quinolinesulfonylaminoethyl)homopiperazine], for which the EC50 (Cavia porcellus) stood at 91 µM.
As to `CCOc1ccc(S(=O)(=O)NCCNCc2ccc(OC)cc2)c2cccnc12` [(22), N-[2-(4-methoxybenzylamino)ethyl]-8-ethoxy-5-quinolinesulfonamide], the EC50 (Cavia porcellus) was determined as 131 µM.
The same measure, in the same setting: the same measure for `COc1ccc(CNCCNS(=O)(=O)c2ccc(Cl)c3ncccc23)cc1OC` [(12), N-[2-(3,4-dimethoxybenzylamino)ethyl]-8-chloro-5-quinolinesulfonamide]: 160 µM; for `CCOc1ccc(S(=O)(=O)NCCN2CCCN(CCc3ccc(OC)c(OC)c3)CC2)c2cccnc12` [(52), 1-(8-ethoxy-5-quinolinesulfonylaminoethyl)-4-(3,4-dioxyphenethyl)homopiperazine]: 102 µM.
Consider `COc1ccc(CCN2CCCN(CCNS(=O)(=O)c3ccc(Cl)c4ncccc34)CC2)cc1OC` [(42), 1-(8-chloro-5-quinolinesulfonylaminoethyl)-4-(3,4-dimethoxyphenethyl)homopiperazine], for which, under “Cavia porcellus”, the EC50 amounted to 95 µM.
